Source: patent publication US20220048884A1, “NRF2 ACTIVATOR” (BIOGEN MA INC., priority 2017, published 2022)

How the values were obtained:
NRF2 = experiment: PathHunter Nuclear Translocation assay (DiscoverX), agonist format; type: cell-based; conditions: 6 hours incubation, 10 concentrations, 30 μM top concentration
From the text: Vehicle concentration was 1%.
Microplates were read following signal generation with a PerkinElmer Envision™ instrument for chemiluminescent signal detection.

human astrocytes [1] = experiment: Cytoprotection of astrocytes against sodium arsenite; type: cell-based; conditions: compound 20 hrs before 25 μM sodium arsenite, then 22 hrs
Procedure: (§1) Human astrocytes from ScienCell (cat #1820) were grown in astrocyte medium per supplier's instructions. Cells cultured for no more than two passages were plated in 96-well plates at 40,000 cells per well for gene transcription experiments and 20,000 cell per well for glutathione and cytoprotection assays.
Astrocytes were treated for 20 hrs as above, then the medium was removed and replaced with serum- and supplement-free growth medium with and without 25 μM sodium arsenite. After 22 hrs., cells were washed with PBS, fixed with 4% paraformaldehyde/4% sucrose in PBS, stained with 4′,6-Diamidino-2-phenylindole dihydrochloride (DAPI) and counted by quantitative fluorescence microscopy.

Nrf2 target genes [2] = experiment: Gene expression (RT-PCR) in cultured human astrocytes; type: cell-based; conditions: 20 hours, increasing concentrations
Procedure: as §1
Primary cultures of human spinal cord astrocytes were treated with compound for 20 hours. The cells were then rinsed in PBS, lysed, and processed for RNA using Ambion Tagman™ Cells-to-CT kit. The resulting cDNA was stored at −20° C. until analysis by real-time polymerase chain reaction (RT-PCR). The cDNA mixture from Cells-to-CT was diluted 5× before loading into PCR. This yields results similar to using 6 ng of purified cDNA. RT-PCR was performed on Life Technologies QuantStudio platform using OpenArray technique according to manufacturer's protocol using the following Taqman primers: […]
The comparative CT method was used to calculate fold changes using ThermoFisher Cloud software for PCR analysis. Samples were compared to vehicle control.

human astrocytes [3] = experiment: Glutathione assay in human astrocytes (GSH-Glo); type: cell-based; conditions: 20-hr exposure
Procedure: as §1
Intracellular glutathione was measured after a 20-hr exposure to test compounds by a two-step process. First, cells were lysed and luciferin quantitatively generated from substrate, catalyzed by glutathione-S-transferase in the presence of analyte glutathione. Then luciferin was assayed using stabilized luciferase to produce a luminescent signal proportional to the concentration of glutathione (Promega GSH-Glo, cat #V6912).

Nrf2 target genes [4] = experiment: Nrf2 target gene expression (qRT-PCR) in tissues of mice after oral dosing; type: in vivo, C57BL/6 mice; conditions: wild-type mice, 10 and 50 mg/kg single oral dose, 2 hours after dosing
From the text: RNA was extracted in chloroform and the aqueous phase was mixed with an equal volume of 70% ethanol. Extracted RNA was applied to RNeasy 96 plates and purified by the spin method according to the manufacturer's protocol (RNeasy 96 Universal Tissue Protocol, QIAgen, Hilden Germany).

| EC50 (NRF2) [nM] | SMILES | protection from oxidative stress-induced cell death (human astrocytes [1]) | transcription of GCLC (Nrf2 target genes [2]) | transcription of HMOX1 (Nrf2 target genes [2]) | transcription of NQO1 (Nrf2 target genes [2]) | transcription of OSGIN1 (Nrf2 target genes [2]) | intracellular glutathione (human astrocytes [3]) | expression of Osgin1 in brain (Nrf2 target genes [4]) |
| --- | --- | --- | --- | --- | --- | --- | --- | --- |
| < 100 | CCn1nnc2c(C)c([C@H](c3ccc4c(c3)CN(C(=O)c3ccc(C)c(C)c3)CC4)[C@H](C)C(=O)ON)ccc21 [Example 133, amino (2S,3S)-3-[2-(3,4-dimethylbenzoyl)-3,4-dihydro-1H-isoquinolin-7-yl]-3-(1-ethyl-4-methyl-benzotriazol-5-yl)-2-methyl-propanoate] | – | – | – | – | – | – | – |
| – | CCn1nnc2c(C)c([C@@H](CC(=O)O)c3ccc4c(c3)CN(C(=O)c3c(C)c(C)cc(C)c3C)CC4)ccc21 [Example 47-Ent1, (S)-3-(1-ethyl-4-methyl-1H-benzo[d][1,2,3]triazol-5-yl)-3-(2-(2,3,5,6-tetramethylbenzoyl)-1,2,3,4-tetrahydroisoquinolin-7-yl)propanoic acid] | protects cells from oxidative stress-induced cell death | induces transcription | induces transcription | induces transcription | induces transcription | increases intracellular glutathione | increases the expression |
